{
  "source": "patent US20100017370A1",
  "about": "“T CELL EPITOPE DATABASES” (ANTITOPE LIMITED, priority 2006, published 2010)",
  "system": "helper T cells in human PBMCs",
  "assay": "ex vivo T cell proliferation assay of peptides with CD8+ / CD25hi depleted PBMC",
  "type": "cell-based",
  "conditions": "for Number of responding donors: from 50 donors with a range of MHC class haplotypes; for Mean SI: mean stimulation index for responding donors, 50 donors tested; for helper T cell epitope status by T cell assays (database entry): proliferation assay, threshold SI≧2, CD25hi depletion 10 and 20 minutes; for T cell epitope strength (T cell proliferative responses): PBMCs of donor 475, peptide 5 μM",
  "data": [
    {"sequence": "FKGEQGPKG", "values": [
      {"measurement": "Number of responding donors", "value": 4},
      {"measurement": "Mean SI", "value": "3.5 ± 0.7"}
    ]},
    {"sequence": "FLLTRILTI", "values": [
      {"measurement": "Number of responding donors", "value": 6},
      {"measurement": "Mean SI", "value": "3.9 ± 1.6"}
    ]},
    {"sequence": "FQHESGPLG [test peptide]", "values": [
      {"measurement": "Number of responding donors", "value": 3},
      {"measurement": "Mean SI", "value": "2.8 ± 0.7"}
    ]},
    {"sequence": "FQHTSILLI [test peptide]", "values": [
      {"measurement": "Number of responding donors", "value": 5},
      {"measurement": "Mean SI", "value": "3.8 ± 0.7"}
    ]},
    {"sequence": "GDKGVSWYQQGSGQS [2-F→G]", "values": [
      {"measurement": "helper T cell epitope status by T cell assays (database entry)", "value": "negative"}
    ]},
    {"sequence": "GFGBHIGPLGEP", "values": [
      {"measurement": "helper T cell epitope status by T cell assays (database entry)", "value": "non-T cell epitope"}
    ]},
    {"sequence": "GQHASGGLA [control peptide with altered P1 residue]", "values": [
      {"measurement": "Number of responding donors", "value": 0}
    ]},
    {"sequence": "GQHESASLR [control peptide with altered P1 residue]", "values": [
      {"measurement": "Number of responding donors", "value": 0}
    ]},
    {"sequence": "GQHESGPLG [control peptide with altered P1 residue]", "values": [
      {"measurement": "Number of responding donors", "value": 0}
    ]},
    {"sequence": "GQHTSILLI [control peptide with altered P1 residue]", "values": [
      {"measurement": "Number of responding donors", "value": 0}
    ]},
    {"sequence": "GQHWSYPLT [control peptide with altered P1 residue]", "values": [
      {"measurement": "Number of responding donors", "value": 0}
    ]},
    {"sequence": "ILWEWASYR", "values": [
      {"measurement": "Number of responding donors", "value": 3},
      {"measurement": "Mean SI", "value": "2.6 ± 0.6"}
    ]},
    {"sequence": "IQHESASLR [test peptide]", "values": [
      {"measurement": "Number of responding donors", "value": 3},
      {"measurement": "Mean SI", "value": "2.6 ± 0.1"}
    ]},
    {"sequence": "LQHASGGLA [test peptide]", "values": [
      {"measurement": "Number of responding donors", "value": 2},
      {"measurement": "Mean SI", "value": "2.2 ± 0.2"}
    ]},
    {"sequence": "LQHWSYPLT", "values": [
      {"measurement": "Number of responding donors", "value": 5},
      {"measurement": "Mean SI", "value": "6.3 ± 1.3"}
    ]},
    {"sequence": "LSCAAGGRA", "values": [
      {"measurement": "Number of responding donors", "value": 3},
      {"measurement": "Mean SI", "value": "2.3 ± 0.5"}
    ]},
    {"sequence": "PKYRNGQPLNSLKIAT [25 M→G]", "values": [
      {"measurement": "helper T cell epitope status by T cell assays (database entry)", "value": "negative"}
    ]},
    {"sequence": "PKYRNMQPLNSLKIAT [compound 25]", "values": [
      {"measurement": "T cell epitope strength (T cell proliferative responses)", "value": "strong"},
      {"measurement": "helper T cell epitope status by T cell assays (database entry)", "value": "helper T cell epitopes"}
    ]},
    {"sequence": "QSISNWGNWYQQKPG [9-L→G]", "values": [
      {"measurement": "helper T cell epitope status by T cell assays (database entry)", "value": "negative"}
    ]},
    {"sequence": "TVFYNIPPMPL [compound 26]", "values": [
      {"measurement": "T cell epitope strength (T cell proliferative responses)", "value": "strong"},
      {"measurement": "helper T cell epitope status by T cell assays (database entry)", "value": "helper T cell epitopes"}
    ]},
    {"sequence": "TVGYNIPPMPL [26 F→G]", "values": [
      {"measurement": "helper T cell epitope status by T cell assays (database entry)", "value": "negative"}
    ]}
  ]
}
